Laboratory results from ChEMBL document CHEMBL1275340, “BACE1 inhibitory activities of enantiomerically pure, variously substituted N-(3-(4-benzhydrylpiperazin-1-yl)-2-hydroxypropyl) arylsulfonamides” (Bioorg Med Chem, 2010).

Molecular target: Beta-secretase 1 (Homo sapiens, UniProt P56817)
Assay: Inhibition of BACE1 by fluorescence assay

Beta-secretase 1, sequence (P56817 whole entry): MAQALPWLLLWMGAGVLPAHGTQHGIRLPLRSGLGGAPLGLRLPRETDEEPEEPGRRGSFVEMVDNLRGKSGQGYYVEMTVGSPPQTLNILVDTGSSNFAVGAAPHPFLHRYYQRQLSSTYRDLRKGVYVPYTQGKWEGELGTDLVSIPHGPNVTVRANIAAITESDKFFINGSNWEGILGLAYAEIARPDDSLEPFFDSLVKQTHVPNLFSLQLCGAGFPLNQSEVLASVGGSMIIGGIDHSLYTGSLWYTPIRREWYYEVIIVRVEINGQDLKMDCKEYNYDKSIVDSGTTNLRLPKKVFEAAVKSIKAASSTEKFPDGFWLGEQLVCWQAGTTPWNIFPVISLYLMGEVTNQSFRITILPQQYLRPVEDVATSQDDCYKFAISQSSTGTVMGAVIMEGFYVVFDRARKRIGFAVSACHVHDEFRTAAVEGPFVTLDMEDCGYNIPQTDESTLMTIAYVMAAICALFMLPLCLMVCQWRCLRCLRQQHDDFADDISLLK

Row | Compound | IC50 [µM]
1 | O=S(=O)(c1ccc(Cl)cc1)N(Cc1ccccc1)C[C@@H](O)CN1CCN(C(c2ccccc2)c2ccccc2)CC1 | 5.4
2 | O=S(=O)(c1ccc(Cl)cc1)N(CCc1ccccc1)C[C@@H](O)CN1CCN(C(c2ccccc2)c2ccccc2)CC1 | 1.9
3 | O=S(=O)(c1ccccc1)N(CCc1ccccc1)C[C@H](O)CN1CCN(C(c2ccccc2)c2ccccc2)CC1 | 5.1
4 | O=S(=O)(c1ccccc1)N(CCc1ccccc1)C[C@@H](O)CN1CCN(C(c2ccccc2)c2ccccc2)CC1 | 6.9
5 | O=S(=O)(c1ccc(Cl)c(Cl)c1)N(CC1CC1)C[C@H](O)CN1CCN(C(c2ccccc2)c2ccccc2)CC1 | 5.4

Further compounds by falling IC50, results first:

Row | IC50 [µM] | Compound
6 | 6.3 | O=S(=O)(c1ccc(Cl)cc1)N(Cc1ccccc1)C[C@H](O)CN1CCN(C(c2ccccc2)c2ccccc2)CC1
7 | 4.7 | O=S(=O)(c1ccc(Cl)c(Cl)c1)N(CC1CC1)C[C@@H](O)CN1CCN(C(c2ccccc2)c2ccccc2)CC1
8 | 2.3 | O=S(=O)(c1ccc(Cl)cc1)N(CCc1ccccc1)C[C@H](O)CN1CCN(C(c2ccccc2)c2ccccc2)CC1
